Test results from article PMC11345829, “Discovery of Potent Isoquinolinequinone N-Oxides to Overcome Cancer Multidrug Resistance” (Journal of Medicinal Chemistry, 2024).
Each block holds one molecule with its values, some of them ahead of it.

Experiments:
[1] = test system: NCI60 tumor cell line panel; design: method as in PMID 31894828; conditions: against 53 human tumor cell lines; cited from earlier work
DLD1-TxR spheroids = test: Cell Titer-Glo 3D spheroid viability assay; format: cell-based, human; conditions: 48 h; 25 at 0.61 and 1.22 μM
Source text: (§1) Figure 12 Effect of compound 25 on the viability of spheroids established from two counterpart pairs of sensitive and MDR cell lines, from NSCLC (NCI-H460 and NCI-H460/R) and colorectal cancer (DLD1 and DLD1-TxR), using MicroTissue 3D Petri dishes. […] (B) Effect of compound 25 on the viability of NCI-H460 spheroids analyzed by Cell Titer-Glo 3D viability assay. (C) Effect of compound 25 on the viability of NCI-H460/R spheroids analyzed with the Cell Titer-Glo 3D viability assay. Results are presented as the % of luciferase luminescence relative to the “blank” cells (medium). […] (E) Effect of compound 25 on the viability of DLD1 spheroids analyzed by Cell Titer-Glo 3D viability assay. (F) Effect of compound 25 on the viability of DLD1-TxR spheroids analyzed with the Cell Titer-Glo 3D viability assay. Data are expressed as mean ± SEM from 3 independent experiments. * p ≤ 0.05 and ** p ≤ 0.01, when comparing DMSO vs compound treatment.
(§2) Spheroid formation was conducted in 12-series agarose 3D Petri Dish micromolds (MicroTissues Technology, MicroTissues Inc., Sigma-Aldrich). The agarose micromolds were prepared using 1% agarose in a 0.9% NaCl solution and then placed in 12-well plates and equilibrated with RPMI supplemented with 10% FBS for at least 2 h before cell seeding. Cell suspensions corresponding to 500 cells per spheroid of the NSCLC cell lines (NCI-H460 and NCI-H460/R), and 1000 cells per spheroid of the colorectal cancer cell lines (DLD1 and DLD1-TxR) were seeded in the corresponding micromolds. The choice of cell seeding concentration was based on a previous optimization assay (data not shown), ensuring that at the end of the assay the spheroids would have a size of around 400 μm. A 20 min incubation period was used for cells to settle into the micromolds and additional medium was finally added to the wells. Spheroid formation was monitored with the Leica DMi1 microscope. […] At the end of the treatment, images from at least 8 different spheroids per condition were captured on the Leica Dmi1 microscope, and posteriorly analyzed with the automated open-source software AnaSP.[82] Spheroid parameters, such as equivalent diameter, circularity, and compactness, were calculated.
(§3) Spheroid viability was determined through the luminescence-based Cell Titer-Glo 3D cell viability assay (Promega). Spheroids grown on MicroTissues 3D Petri Dish micromolds were exposed to the treatments, as described in the previous section. Then, the spheroids were transferred into 96-well plates in 50 μL of RPMI medium. […] The plate was then incubated in the dark for 5 min with agitation and allowed to rest for 25 min before luminescence measurement. Luminescence was quantified using the microplate reader Synergy MX coupled with the GEN5 software. […]

DLD1 spheroids = test: Cell Titer-Glo 3D spheroid viability assay; format: cell-based, human; conditions: 48 h; 25 at 0.61 and 1.22 μM
Source text: as §1, §2, §3

A549 = test: SRB cell growth inhibition assay; format: cell-based; conditions: Homo sapiens, 48 h, NSCLC, read-out: GI50 ± SEM A549
Protocol: (§4) Two pairs of drug-sensitive and multidrug-resistant (MDR) cell lines from human nonsmall cell lung cancer (NSCLC), NCI-H460 and NCI-H460/R, and colorectal cancer, DLD1 and DLD1-TxR, kindly provided by Dr M. Pešić (Belgrade, Serbia), were used to evaluate the growth inhibition potential of the compounds 1, 2, 3, 4, 5, 20, 23, 24, an 25.[76],[77] Additionally, growth inhibition assays were performed with compound 25 on two other NSCLC cell lines, A549 and NCI-H322, obtained from the American Type Culture Collection (ATCC) and the European Collection of Authenticated Cell Cultures, respectively. The A549 cell line was maintained in Dulbecco’s Modified Eagle Medium (DMEM) supplemented with 4.5 g/L Glucose with UltraGlutamine with sodium pyruvate (Lonza, Basel Stücki, Switzerland), enriched with 10% fetal bovine serum (FBS; Biowest, Nuaillé, France). […]
(§5) Cells were seeded at a previously determined optimal cell concentration (5.0 × 10^4 cells/mL for NSCLC cells and the nontumorigenic MRC-5 cell line and 1.0 × 10^5 cells/mL for colorectal cancer cells) and incubated at 37 °C for 24 h. […] Absorbance was measured at 510 nm in a multiplate reader (Synergy Mx, Biotek Instruments Inc., Winooski, Vermont, USA) using the Gen5 software (Biotek Instruments Inc.).

NCI-H322 = test: SRB cell growth inhibition assay; format: cell-based; conditions: Homo sapiens, 48 h, NSCLC, read-out: GI50 ± SEM NCI-H322
Protocol: as §4, §5

MRC-5 = test: SRB cytotoxicity assay, nontumorigenic lung fibroblasts; format: cell-based, human; conditions: 48 h
Protocol: Selectivity over nontumorigenic cells is a key requirement in cancer therapy so the cytotoxicity of 25 against nontumorigenic lung fibroblast (MRC-5) and breast cell lines (MCF12A) was evaluated with the SRB assay.
Figure 5 Cytotoxic effect of compound 25 on the nontumorigenic MRC-5 cell line (fibroblasts isolated from the lung tissue), analyzed by the SRB assay. Concentration−response curves of MRC-5 cells exposed to compound 25 for 48 h. Results are presented as percentage (%) of cell growth compared to control cells (vehicle, DMSO). For comparison purposes, the GI50 concentration of compound 25 in the NCI-H460 cell line is represented by the vertical dotted line. Results are the mean ± SEM from at least three independent experiments.
Cells were seeded at a previously determined optimal cell concentration (5.0 × 10^4 cells/mL for NSCLC cells and the nontumorigenic MRC-5 cell line and 1.0 × 10^5 cells/mL for colorectal cancer cells) and incubated at 37 °C for 24 h. […] The SRB assay was performed as previously described.[78],[79] […] Absorbance was measured at 510 nm in a multiplate reader (Synergy Mx, Biotek Instruments Inc., Winooski, Vermont, USA) using the Gen5 software (Biotek Instruments Inc.).

NCI-H460 spheroid = test system: NCI-H460 spheroid; design: method as in PMID 34915071; conditions: 3D; cited from earlier work

SMILES: COC(=O)c1c2c(c(C)[n+]([O-])c1C)C(=O)C=C(NCc1ccccc1)C2=O [Compound 2]
GI50 [1]: 910 nM

GI50 (A549): 220 ± 20 nM | GI50 (NCI-H322): 450 ± 60 nM
SMILES: COC(=O)c1c2c(c[n+]([O-])c1C)C(=O)C=C(NCc1ccccc1)C2=O [Compound 25]
viability of DLD1-TxR spheroids (DLD1-TxR spheroids): significant decrease in the viability of the spheroids | viability of DLD1 spheroids (DLD1 spheroids): significant decrease in the viability of the spheroids | GI50 (MRC-5; Homo sapiens, MRC5, SRB, nontumorigenic lung fibroblasts, ±0.075 SEM): 1530 nM | effect on MRC-5 growth at low concentrations (MRC-5; below 0.5 μM): does not reduce the growth of this cell line

SMILES: COc1cccc2c1C(=O)c1c(O)c3c(c(O)c1C2=O)C[C@@](O)(C(=O)CO)C[C@@H]3O[C@H]1C[C@H](N)[C@H](O)[C@H](C)O1 [doxorubicin, reference compound]
concentration reducing NCI-H460 spheroid viability (NCI-H460 spheroid): 20 µM
